From patent US10980889B1 (Revolution Medicines, Inc., priority 2018, dated 2021)

Assays:
P-Akt (S473) = assay: Cell based AlphaLISA assay, inhibition of P-Akt (S473) in MDA-MB-468 cells (mTORC2 substrate); conditions: AlphaLisa, two to four hours at 37° C.; for IC50: Homo sapiens, 4 h, read-out: pIC50 for Inhibition of mTORC1 and mTORC2 Substrate Phosphorylation p-AKT1/2/3-(S473) (converted)
Protocol: (§1) Cell Based AlphaLISA Assays For Determining IC50 For Inhibition of P-Akt (S473), P-4E-BP1(T37/46), and P-P70S6K (T389) in MDA-MB-468 Cells
(§2) mTOR Kinase Cellular Assay
(§3) To measure functional activity of mTORC1 and mTORC2 in cells the phosphorylation of 4EBPT (Thr37/46) and P70S6K (Thr389), and AKT1/2/3 (Ser473) was monitored using AlphaLisa SureFire Ultra Kits (Perkin Elmer). […] Incubations were terminated by removal of the assay buffer and addition of lysis buffer provided with the assay kit. Samples were processed according to the manufacturer's instructions. The Alpha signal from the respective phosphoproteinswas measured in duplicate using a microplate reader (Envision, Perkin-Elmer or Spectramax M5, Molecular Devices). Inhibitor concentration response curves were analyzed using normalized IC50 regression curve filling with control based normalization.

P-4E-BP1 (T37/46) = assay: Cell based AlphaLISA assay, inhibition of P-4E-BP1 (T37/46) in MDA-MB-468 cells (mTORC1 substrate); conditions: AlphaLisa, two to four hours at 37° C.; for IC50: Homo sapiens, 4 h, read-out: pIC50 for Inhibition of mTORC1 and mTORC2 Substrate Phosphorylation P-4E-BP1-(T37/46) (converted)
Protocol: as §1, §2, §3

P-P70S6K (T389) = assay: Cell based AlphaLISA assay, inhibition of P-P70S6K (T389) in MDA-MB-468 cells (mTORC1 substrate); conditions: AlphaLisa, two to four hours at 37° C.; for IC50: Homo sapiens, 4 h, read-out: pIC50 for Inhibition of mTORC1 and mTORC2 Substrate Phosphorylation p-P70S6K-(T389) (converted)
Protocol: as §1, §2, §3

Structure (SMILES) | IC50 (P-Akt (S473)) [nM] | IC50 (P-4E-BP1 (T37/46)) [nM] | IC50 (P-P70S6K (T389)) [nM] | pIC50 for Inhibition of mTORC1 and mTORC2 Substrate Phosphorylation p-AKT1/2/3-(S473) (P-Akt (S473)) | pIC50 for Inhibition of mTORC1 and mTORC2 Substrate Phosphorylation P-4E-BP1-(T37/46) (P-4E-BP1 (T37/46)) | pIC50 for Inhibition of mTORC1 and mTORC2 Substrate Phosphorylation p-P70S6K-(T389) (P-P70S6K (T389))
CO[C@H]1C[C@@H]2CC[C@@H](C)[C@@](O)(O2)C(=O)C(=O)N2CCCC[C@H]2C(=O)O[C@H]([C@H](C)C[C@@H]2CC[C@@H](OC(=O)NCCOCCOCCOCCOCCOCCOCCOCCOCC(=O)N3CCc4cc(Cn5nc(-c6ccc7oc(N)nc7c6)c6c(N)ncnc65)ccc4C3)[C@H](OC)C2)C[C@@H](O)[C@H](C)/C=C(\C)[C@@H](O)[C@@H](OC)C(=O)[C@H](C)C[C@H](C)/C=C/C=C/C=C/1C [Example 28] | > 1000 | < 3.16 | < 1 | – | – | –
CO[C@H]1C[C@@H]2CC[C@@H](C)[C@@](O)(O2)C(=O)C(=O)N2CCCC[C@H]2C(=O)O[C@H]([C@H](C)C[C@@H]2CC[C@@H](OC(=O)NCCOCCOCCOCCOCCOCCOCCOCCOCCC(=O)N3CCc4cc(Cn5nc(-c6ccc7oc(N)nc7c6)c6c(N)ncnc65)ccc4C3)[C@H](OC)C2)C[C@H](N=[N+]=[N-])[C@H](C)/C=C(\C)[C@@H](O)[C@@H](OC)C(=O)[C@H](C)C[C@H](C)/C=C/C=C/C=C/1C [Example 30] | 3.16 to 31.6 | < 3.16 | < 1 | – | – | –
CO[C@H]1C[C@@H]2CC[C@@H](C)[C@@](O)(O2)C(=O)C(=O)N2CCCC[C@H]2C(=O)O[C@H]([C@H](C)C[C@@H]2CC[C@@H](OC(=S)NCCOCCOCCOCCOCCOCCOCCOCCOCCC(=O)N3CCc4cc(Cn5nc(-c6ccc7oc(N)nc7c6)c6c(N)ncnc65)ccc4C3)[C@H](OC)C2)C[C@@H](O)[C@H](C)/C=C(\C)[C@@H](O)[C@@H](OC)C(=O)[C@H](C)C[C@H](C)/C=C/C=C/C=C/1C [Example 33] | > 1000 | < 3.16 | < 1 | – | – | –
CO[C@H]1C[C@@H]2CC[C@@H](C)[C@@](O)(O2)C(=O)C(=O)N2CCCC[C@H]2C(=O)O[C@H]([C@H](C)C[C@@H]2CC[C@@H](OC(=S)NCCOCCOCCOCCOCCOCCOCCOCCOCCC(=O)N3CCc4cc(Cn5nc(-c6ccc7oc(N)nc7c6)c6c(N)ncnc65)ccc4C3)[C@H](OC)C2)C[C@@H](OC)[C@H](C)/C=C(\C)[C@@H](O)[C@@H](OC)C(=O)[C@H](C)C[C@H](C)/C=C/C=C/C=C/1C [Example 34] | > 1000 | > 1000 | < 1 | – | – | –
CO[C@H]1C[C@@H]2CC[C@@H](C)[C@@](O)(O2)C(=O)C(=O)N2CCCC[C@H]2C(=O)O[C@H]([C@H](C)C[C@@H]2CC[C@@H](OC(=O)NCCOCCOCCOCCOCCOCCOCCOCCOCCC(=O)NCc3ccc(Cn4nc(-c5ccc6oc(N)nc6c5)c5c(N)ncnc54)cc3)[C@H](OC)C2)CC(=O)[C@H](C)/C=C(\C)[C@@H](O)[C@@H](OC)C(=O)[C@H](C)C[C@H](C)/C=C/C=C/C=C/1C [Example 35] | 3.16 to 31.6 | < 3.16 | < 1 | – | – | –
CO[C@H]1C[C@@H]2CC[C@@H](C)[C@@](O)(O2)C(=O)C(=O)N2CCCC[C@H]2C(=O)O[C@H]([C@H](C)C[C@@H]2CC[C@@H](OC(=O)NCCOCCOCCOCCOCCOCCOCCOCCOCCC(=O)NCc3ccc(Cn4nc(-c5ccc6oc(N)nc6c5)c5c(N)ncnc54)cc3)[C@H](OC)C2)C[C@@H](O)[C@H](C)/C=C(\C)[C@@H](O)[C@@H](OC)C(=O)[C@H](C)C[C@H](C)/C=C/C=C/C=C/1C [Example 36] | > 1000 | < 3.16 | < 1 | – | – | –
CO[C@H]1C[C@@H]2CC[C@@H](C)[C@@](O)(O2)C(=O)C(=O)N2CCCC[C@H]2C(=O)O[C@H]([C@H](C)C[C@@H]2CC[C@@H](OC(=O)NCCOCCOCCOCCOCCOCCOCCOCCOCCC(=O)NCc3ccc(Cn4nc(-c5ccc6oc(N)nc6c5)c5c(N)ncnc54)cc3)[C@H](OC)C2)C[C@@H](OC)[C@H](C)/C=C(\C)[C@@H](O)[C@@H](OC)C(=O)[C@H](C)C[C@H](C)/C=C/C=C/C=C/1C [Example 37] | > 1000 | < 3.16 | < 1 | – | – | –
CO[C@H]1C[C@@H]2CC[C@@H](C)[C@@](O)(O2)C(=O)C(=O)N2CCCC[C@H]2C(=O)O[C@H]([C@H](C)C[C@@H]2CC[C@@H](OC(=O)NCCOCCOCCOCCOCCOCCOCCOCCOCCC(=O)NCc3ccc(Cn4nc(-c5ccc6oc(N)nc6c5)c5c(N)ncnc54)cc3)[C@H](OC)C2)C[C@H](N=[N+]=[N-])[C@H](C)/C=C(\C)[C@@H](O)[C@@H](OC)C(=O)[C@H](C)C[C@H](C)/C=C/C=C/C=C/1C [Example 38] | > 1000 | > 1000 | < 1 | – | – | –
CO[C@H]1C[C@@H]2CC[C@@H](C)[C@@](O)(O2)C(=O)C(=O)N2CCCC[C@H]2C(=O)O[C@H]([C@H](C)C[C@@H]2CC[C@@H](OC(=S)NCCOCCOCCOCCOCCOCCOCCOCCOCCC(=O)NCc3ccc(Cn4nc(-c5ccc6oc(N)nc6c5)c5c(N)ncnc54)cc3)[C@H](OC)C2)C[C@@H](O)[C@H](C)/C=C(\C)[C@@H](O)[C@@H](OC)C(=O)[C@H](C)C[C@H](C)/C=C/C=C/C=C/1C [Example 39] | < 3.16 | < 3.16 | < 1 | – | – | –
CO[C@H]1C[C@@H]2CC[C@@H](C)[C@@](O)(O2)C(=O)C(=O)N2CCCC[C@H]2C(=O)O[C@H]([C@H](C)C[C@@H]2CC[C@@H](OC(=O)NCCOCCOCCOCCOCCOCCOCCOCCOCCC(=O)NCCS(=O)(=O)c3ccc(C(=O)N4CCOc5ccc(-c6ccc(N)nc6)cc5C4)c(C)c3)[C@H](OC)C2)CC(=O)[C@H](C)/C=C(\C)[C@@H](O)[C@@H](OC)C(=O)[C@H](C)C[C@H](C)/C=C/C=C/C=C/1C [Example 40] | 3.16 to 31.6 | < 3.16 | < 1 | – | – | –
CO[C@H]1C[C@@H]2CC[C@@H](C)[C@@](O)(O2)C(=O)C(=O)N2CCCC[C@H]2C(=O)O[C@H]([C@H](C)C[C@@H]2CC[C@@H](OC(=O)NCCOCCOCCOCCOCCOCCOCCOCCOCCC(=O)NCCS(=O)(=O)c3ccc(C(=O)N4CCOc5ccc(-c6ccc(N)nc6)cc5C4)c(C)c3)[C@H](OC)C2)C[C@@H](O)[C@H](C)/C=C(\C)[C@@H](O)[C@@H](OC)C(=O)[C@H](C)C[C@H](C)/C=C/C=C/C=C/1C [Example 41] | > 1000 | < 3.16 | < 1 | – | – | –
CO[C@H]1C[C@@H]2CC[C@@H](C)[C@@](O)(O2)C(=O)C(=O)N2CCCC[C@H]2C(=O)O[C@H]([C@H](C)C[C@@H]2CC[C@@H](OC(=O)NCCOCCOCCOCCOCCOCCOCCOCCOCCC(=O)NCCS(=O)(=O)c3ccc(C(=O)N4CCOc5ccc(-c6ccc(N)nc6)cc5C4)c(C)c3)[C@H](OC)C2)C[C@@H](OC)[C@H](C)/C=C(\C)[C@@H](O)[C@@H](OC)C(=O)[C@H](C)C[C@H](C)/C=C/C=C/C=C/1C [Example 42] | 3.16 to 31.6 | < 3.16 | < 1 | – | – | –
CO[C@H]1C[C@@H]2CC[C@@H](C)[C@@](O)(O2)C(=O)C(=O)N2CCCC[C@H]2C(=O)O[C@H]([C@H](C)C[C@@H]2CC[C@@H](OC(=O)N3CCc4nc(N5CCN(c6ncc(C(=O)N7CCN(c8ncc(C(=O)N9CCc%10cc(Cn%11nc(-c%12cnc%13oc(N)nc%13c%12)c%12c(N)ncnc%12%11)ccc%10C9)cn8)CC7)cn6)CC5)ncc4C3)[C@H](OC)C2)CC(=O)[C@H](C)/C=C(\C)[C@@H](O)[C@@H](OC)C(=O)[C@H](C)C[C@H](C)/C=C/C=C/C=C/1C [Example 62] | – | – | – | − (<6) | − (<6) | ++ (9 > pIC50 ≥ 8)
CO[C@H]1C[C@@H]2CC[C@@H](C)[C@@](O)(O2)C(=O)C(=O)N2CCCC[C@H]2C(=O)O[C@H]([C@H](C)C[C@@H]2CC[C@@H](OC(=O)NCCOCCOCCOCCOCCOCCOCCOCCOCC(=O)N3CCc4cc(Cn5nc(-c6ccc7oc(N)nc7c6)c6c(N)ncnc65)ccc4C3)[C@H](OC)C2)C[C@@H](O)[C@H](C)/C=C(\C)[C@@H](O)[C@@H](OC)C(=O)[C@H](C)C[C@H](C)/C=C/C=C/C=C/1C [Example 72] | – | – | – | +++ (≥8.5) | +++ (≥8.5) | +++ (≥9)
CO[C@H]1C[C@@H]2CC[C@@H](C)[C@@](O)(O2)C(=O)C(=O)N2CCCC[C@H]2C(=O)O[C@H]([C@H](C)C[C@@H]2CC[C@@H](OC(=O)NCCOCCOCCOCCOCCOCCOCCOCCOCCC(=O)N3CCc4cc(Cn5nc(-c6ccc7oc(N)nc7c6)c6c(N)ncnc65)ccc4C3)[C@H](OC)C2)C[C@@H](O)[C@H](C)/C=C(\C)[C@@H](O)[C@@H](OC)C(=O)[C@H](C)C[C@H](C)/C=C/C=C/C=C/1C [Example 75] | – | – | – | ++ (8.5 > pIC50 ≥ 7.5) | +++ (≥8.5) | +++ (≥9)
